This note sets out measurements from patent US11957680B2, “Pyruvate kinase activators for use in treating blood disorders” (Agios Pharmaceuticals, Inc., priority 2017, dated 2024).

The target in test [1] is T1, wild type PKR (Homo sapiens, UniProt P30613). As to the kind of experiment: PKR (wild type) enzyme AC50 assay, LDH/NADH-coupled, absorbance at 340 nm. It is filed as biochemical. The conditions noted are these: Table 2, enzyme assay; for AC50: read-out: PKR WT AC50. On the procedure:
(§1) Example 11. PKR Mutant Assay
(§2) PKR or PKR mutant enzyme solution was diluted into a reaction mix, which contains 1× buffer (100 mM KCl, 50 mM Tris pH 7.5, 5 mM MgCl2) as well as PEP (conc depends on enzyme), 180 μM NADH, 0.5 units LDH, 1 mM DTT, 0.03% BSA; final assay concentrations after 1.11 fold dilution are indicated.
(§3) 2 μL of test compound was added into wells first, and then 180 μL reaction mix was added.
(§4) Reactions mixture with test compound was assembled except for ADP, and plates were stored for 60 minutes at room temperature.
(§5) 20 uL ADP was added to start reaction at room temperature and reaction progress was measured as changes in absorbance at 340 nm wavelength at room temperature.
(§6) Test Compound Preparation:
(§7) Test compound stock was made at 100× concentration in 100% DMSO (10 mM)
(§8) 1 to 3 dilutions were made for 11 points (i.e. 50 μl of first concentration added to 100 μl 100% DMSO to yield 3.33 mM, 50 μl of this added to 100 μl DMSO to yield 1.11 mM, and so forth) • 1 to 100 dilution into assay (2 μl in 200 μl) yielded starting concentration of 100 μM, decreasing 3 fold for 11 points.
(§9) Assay Buffer: 100 mM KCl, 50 mM Tris 7.5, 5 mM MgCl2, 1 mM DTT, 0.03% BSA
(§10) Reaction Mixture: PKR mutant enzyme: 40-400 ng/well; ADP: 0.2-1.65 mM; PEP: 0.1-0.5 mM; NADH: 180 μM; LDH: 0.5 units (Sigma #59023); DTT: 1 mM; BSA: 0.03%.

The next test has as its target PKR R510Q (Homo sapiens, UniProt P30613, R510Q). As to the kind of experiment: PKR mutant assay (R510Q), AC50, LDH/NADH-coupled, absorbance at 340 nm. The conditions noted are these: Table 2, enzyme assay; for AC50: read-out: PK R510Q AC50. The class given is biochemical. On the procedure:
as §1, §2, §3, §4, §5, §6, §7, §8, §9, §10

The target in a further test is PKR K410E (Homo sapiens, UniProt P30613, K410E). As to the kind of experiment: PKR mutant assay (K410E), AC50, LDH/NADH-coupled, absorbance at 340 nm. It is filed as biochemical. The conditions noted are these: Table 2; enzyme assay. How it is done:
as §1, §2, §3, §4, §5, §6, §7, §8, §9, §10

The target in test [2] is T1, wild type PKR. As to the kind of experiment: Cell based ATP assay in purified red blood cells (Cell-Titer-Glo). Also on record: endogenous in cells; host or cells: purified red blood cells from healthy volunteers. As to conditions: Table 2; RBCs, overnight at 37° C., ATP levels. On the procedure: Example 16. Red Blood Cell (RBC) Purification
Fresh blood drawn from healthy volunteers into K2EDTA tubes was collected. Whole blood was pelleted by spinning at 500 g for 10 minutes. Cut transfusion bag port off of Purecell leukocyte reduction neofilter (Fisher NC0267633) one (1) inch above filter. Attach a 10 ml syringe barrel to the remaining cut tubing attached to neofilter. The plasma layer was removed from the pellet of the whole blood and the pellet was resuspended in 2× volume of phosphate buffered saline (PBS). Transfer 9 ml re-suspended blood cell pellet to prepared 10 ml syringe that is attached to the neofilter. Allow whole blood to gravity flow through filter until all fluid runs through upper tubing into filter disc. Add plunger to the syringe, remove syringe from clamp and invert the filter, then plunge air through the syringe filter system. Using a new 5 ml syringe, remove filtered RBCs from the bag by the syringe port and transfer purified RBCs to a 5 ml snap cap tube that has been incubated on ice. Spin 5 ml snap cap tube at 500 g for 10 minutes at 15 C, aspirate supernatant and resuspend in AGAM (1×PBS, 1% glucose, 170 mg/L adenine, 5.25 g/L mannitol) at a density of 4×10^9 cells/mL.
Example 17. Cell Based ATP Assay
For cell based ATP assays, the compound as described herein was prepared in 100% DMSO as a 10 mM stock. Serial dilutions (1:4) were performed in 96-well V-bottom storage plate and then added 1:100 to 96-well V-bottom plates containing AGAM. RBCs were diluted in AGAM media to a density of 1×10^7 cells/mL before added 90 μL/well to black clear bottom assay plates (final compound concentration at 0.1% DMSO concentration). Assay plates were sealed using aluminum foil seals and incubated overnight at 37° C. in a humidified chamber. ATP levels were read out using Cell-Titer-Glo (Promega).

T1 sequence (P30613 whole entry): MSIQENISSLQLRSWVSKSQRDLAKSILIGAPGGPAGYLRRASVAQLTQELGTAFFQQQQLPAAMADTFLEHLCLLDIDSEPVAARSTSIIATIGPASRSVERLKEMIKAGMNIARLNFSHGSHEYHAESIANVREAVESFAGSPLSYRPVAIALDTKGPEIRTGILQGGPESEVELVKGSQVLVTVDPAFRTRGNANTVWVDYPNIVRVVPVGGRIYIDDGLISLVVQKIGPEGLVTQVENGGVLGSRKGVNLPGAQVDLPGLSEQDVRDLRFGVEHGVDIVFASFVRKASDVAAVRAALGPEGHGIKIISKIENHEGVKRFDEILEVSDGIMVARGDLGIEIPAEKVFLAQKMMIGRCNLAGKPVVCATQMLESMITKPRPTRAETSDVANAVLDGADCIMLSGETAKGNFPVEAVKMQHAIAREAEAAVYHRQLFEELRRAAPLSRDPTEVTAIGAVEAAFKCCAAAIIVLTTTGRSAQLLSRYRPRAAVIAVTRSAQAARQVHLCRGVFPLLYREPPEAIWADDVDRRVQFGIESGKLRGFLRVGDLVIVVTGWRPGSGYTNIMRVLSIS
PKR K410E, sequence (P30613 whole entry K410E): as the sequence (P30613 whole entry) above, with K410E counted along it
PKR R510Q, sequence (P30613 whole entry R510Q): as the sequence (P30613 whole entry) above, with R510Q counted along it

By AC50 is commonly meant the concentration giving half of the maximal activity seen. In the case of `Cc1nc2c(s1)c1cnn(Cc3ccc([N+](=O)[O-])cc3)c(=O)c1n2C` [Compound 48], on wild type PKR [1], the “PKR WT AC50” value was “No Fit”. The AC50 on PKR R510Q and at PKR K410E was greater than 800 nM in each case. Besides, the “Cell based ATP assay AC50” value on wild type PKR [2] is reported as “No Fit”.
Take `Cc1nc2c(s1)c1cnn(Cc3ccc(N)cc3)c(=O)c1n2C` [Compound 49]: the AC50 on wild type PKR [1] was greater than 800 nM; on PKR R510Q it was greater than 800 nM; on PKR K410E, greater than 800 nM; on wild type PKR [2], greater than 1000 nM.
`COc1cccc(Cn2ncc3c4sc(CC5CCCCC5)nc4n(C)c3c2=O)c1` [Compound 50]: the AC50 on wild type PKR [1], at PKR R510Q and on PKR K410E was greater than 800 nM each time. On wild type PKR [2], the “Cell based ATP assay AC50” value is “No Fit”.
On to `COc1cccc(Cn2ncc3c4sc(CO)nc4n(C)c3c2=O)c1` [Compound 51], for which the AC50 on wild type PKR [1] is less than 300 nM; at PKR R510Q it was less than 300 nM; on PKR K410E, less than 300 nM; on wild type PKR [2], no more than 1000 nM.
For `COc1cccc(Cn2ncc3c4sc(C(C)O)nc4n(C)c3c2=O)c1` (stereo not shown) [Compound 52], the AC50 was less than 300 nM at wild type PKR [1], less than 300 nM on PKR R510Q, less than 300 nM on PKR K410E and no more than 1000 nM on wild type PKR [2].
Take `COc1cccc(Cn2ncc3c4sc(C(F)(F)F)nc4n(C)c3c2=O)c1` [Compound 53]: the AC50 is less than 300 nM at wild type PKR [1], less than 300 nM on PKR R510Q, less than 300 nM at PKR K410E and greater than 1000 nM at wild type PKR [2].
Take `Cc1nc2c(s1)c1cnn(CCOCCO)c(=O)c1n2C` [Compound 54]: the half-maximal activity concentration (AC50) on wild type PKR [1] and at PKR K410E was greater than 800 nM each time. Besides, the “PK R510Q AC50” value at PKR R510Q is listed as “No Fit”. The “Cell based ATP assay AC50” value at wild type PKR [2] is “No Fit”.
For `COc1cccc(Cn2ncc3c4sc(C(=O)c5cccc(O)c5)nc4n(C)c3c2=O)c1` [Compound 55], the AC50 on wild type PKR [1] is 301 to 800 nM; on PKR R510Q, 301 to 800 nM; on PKR K410E it was greater than 800 nM; at wild type PKR [2], greater than 1000 nM.
As for `CC(=O)c1cccc(Cn2ncc3c4sc(C)nc4n(C)c3c2=O)c1` [Compound 56], the AC50 at wild type PKR [1] is 301 to 800 nM; at PKR R510Q it was less than 300 nM; at PKR K410E, less than 300 nM; on wild type PKR [2], greater than 1000 nM.
`Cc1nc2c(s1)c1cnn(Cc3cccc(C(C)N)c3)c(=O)c1n2C` (stereo not shown) [Compound 57]: the AC50 on wild type PKR [1] was less than 300 nM; on PKR R510Q, less than 300 nM; on PKR K410E, less than 300 nM; on wild type PKR [2], no more than 1000 nM.
Turning to `Cc1nc2c(s1)c1cnn(Cc3cccc(CN)c3)c(=O)c1n2C` [Compound 58], the AC50 on wild type PKR [1] was less than 300 nM; on PKR R510Q, less than 300 nM; at PKR K410E, less than 300 nM; on wild type PKR [2], greater than 1000 nM.
Regarding `COc1cccc(Cn2ncc3c4sc(Cc5ccc(F)cc5)nc4n(C)c3c2=O)c1` [Compound 59], the AC50 was less than 300 nM on wild type PKR [1], less than 300 nM at PKR R510Q, less than 300 nM at PKR K410E and no more than 1000 nM at wild type PKR [2].
With `Cc1nc2c(s1)c1cnn(Cc3ccc4cc[nH]c4c3)c(=O)c1n2C` [Compound 60], the AC50 is less than 300 nM at wild type PKR [1], less than 300 nM at PKR R510Q, less than 300 nM at PKR K410E and no more than 1000 nM at wild type PKR [2].
`Cc1nc2c(s1)c1cnn(Cc3ccc4[nH]c(=O)[nH]c4c3)c(=O)c1n2C` [Compound 61]: the AC50 at wild type PKR [1], on PKR R510Q and on PKR K410E was greater than 800 nM each time. For the same compound, the “Cell based ATP assay AC50” value on wild type PKR [2] is listed as “No Fit”.
For `COc1cccc(Cn2ncc3c4sc(C(C)=O)nc4n(C)c3c2=O)c1` [Compound 62], the AC50 at wild type PKR [1] is less than 300 nM; on PKR R510Q, less than 300 nM; at PKR K410E, less than 300 nM; at wild type PKR [2], no more than 1000 nM.
Turning to `COc1cccc(Cn2ncc3c4sc(C(C)(C)O)nc4n(C)c3c2=O)c1` [Compound 63], the concentration at half-maximal activity (AC50) on wild type PKR [1] was less than 300 nM; on PKR R510Q, less than 300 nM; on PKR K410E, less than 300 nM; on wild type PKR [2], greater than 1000 nM.
